Measurements from patent publication US4698352A, “4-oxo-1,4-dihydronicotinic acid derivatives, salts thereof, and antibacterial agents containing the same” (Toyama Chemical Co., Ltd., priority 1982, dated 1987).
Converted amounts (≈) assume the structure as drawn. Read-outs that look alike come from different tables or passages of the source.

What was measured:
Aci. antitratus A-6 = assay: Antibacterial activity (MIC), agar dilution; assay type: cell-based; conditions: Aci. antitratus A-6, 10^6 cells per ml, 37° C., 20 hours
Description: (§1) The amount of bacteria inoculated was 10^4 cells per plate (10^6 cells per ml).

E. coli NIHJ JC-2 = assay: Antibacterial activity (MIC), agar dilution; assay type: cell-based; conditions: E. coli NIHJ JC-2, 10^6 cells per ml, 37° C., 20 hours
Description: as §1

E. coli TK-111 = assay: Antibacterial activity (MIC), agar dilution; assay type: cell-based; conditions: E. coli TK-111, 10^6 cells per ml, 37° C., 20 hours
Description: as §1

Ent. cloacae IID977 = assay: Antibacterial activity (MIC), agar dilution; assay type: cell-based; conditions: Ent. cloacae IID977, 10^6 cells per ml, 37° C., 20 hours
Description: as §1

Kl. pneumoniae Y-41 = assay: Antibacterial activity (MIC), agar dilution; assay type: cell-based; conditions: 37° C., 20 hours
Description: as §1

Kl. pneumoniae Y-50 = assay: Antibacterial activity (MIC), agar dilution; assay type: cell-based; conditions: 10^6 cells per ml, 37° C.
Description: as §1

Pro. mirabilis T-111 = assay: Antibacterial activity (MIC), agar dilution; assay type: cell-based; conditions: 37° C.
Description: as §1

Pro. morganii T-216 = assay: Antibacterial activity (MIC), agar dilution; assay type: cell-based; conditions: 37° C.
Description: as §1

Pro. vulgaris GN3027 = assay: Antibacterial activity (MIC), agar dilution; assay type: cell-based; conditions: Pro. vulgaris GN3027, 10^6 cells per ml, 37° C., 20 hours
Description: as §1

Ps. aeruginosa IFO3445 = assay: Antibacterial activity (MIC), agar dilution; assay type: cell-based; conditions: Ps. aeruginosa IFO3445, 10^6 cells per ml, 37° C., 20 hours
Description: as §1

Ps. aeruginosa S-68 = assay: Antibacterial activity (MIC), agar dilution; assay type: cell-based; conditions: Ps. aeruginosa S-68, 10^6 cells per ml, 37° C., 20 hours
Description: as §1

St. aureus FDA209P = assay: Antibacterial activity (MIC), agar dilution; assay type: cell-based; conditions: St. aureus FDA209P, 10^6 cells per ml, 37° C., 20 hours
Description: as §1

E. coli TK-3* = assay: Antibacterial activity (MIC), agar dilution; assay type: cell-based; conditions: E. coli TK-3, penicillinase-producing, 10^6 cells per ml
Description: as §1
(§2) * Penicillinase-producing bacteria

Kl. pneumoniae Y-4* = assay: Antibacterial activity (MIC), agar dilution; assay type: cell-based; conditions: Kl. pneumoniae Y-4, penicillinase-producing, 10^6 cells per ml
Description: as §1, §2

Ps. aeruginosa GN3379* = assay: Antibacterial activity (MIC), agar dilution; assay type: cell-based; conditions: Ps. aeruginosa GN3379, penicillinase-producing, 10^6 cells per ml
Description: as §1, §2

St. aureus F-137* = assay: Antibacterial activity (MIC), agar dilution; assay type: cell-based; conditions: St. aureus F-137, penicillinase-producing, 10^6 cells per ml
Description: as §1, §2

E. coli GN5482** = assay: Antibacterial activity (MIC), agar dilution; assay type: cell-based; conditions: E. coli GN5482, cephalospolinase-producing, 10^6 cells per ml
Description: as §1
(§3) ** Cephalospolinase-producing bacteria

Pro. vulgaris GN76** = assay: Antibacterial activity (MIC), agar dilution; assay type: cell-based; conditions: Pro. vulgaris GN76, cephalospolinase-producing, 10^6 cells per ml
Description: as §1, §3

Ps. aeruginosa GN918** = assay: Antibacterial activity (MIC), agar dilution; assay type: cell-based; conditions: Pseudomonas aeruginosa, Ps. aeruginosa GN918, cephalospolinase-producing, 10^6 cells per ml
Description: as §1, §3

[1] = Acute toxicity test (intravenous LD50); conditions: mouse, in vivo, mice (ICR strain, male, 18-24 g)
Description: The LD50 values of the representative compounds of this invention when administered intravenously to mice (ICR strain, male, 18-24 g) are shown in Table 2.

[2] = Morganella morganii, T216, 10^6 cells per ml, 20 hours, read-out: MIC
[3] = Escherichia coli, NIHJJC2, 20 h, read-out: MIC
[4] = Escherichia coli, TK111, 20 h, read-out: MIC
[5] = Enterobacter cloacae, IID977, 20 h, read-out: MIC
[6] = Klebsiella pneumoniae, Y41, 10^6 cells per ml, read-out: MIC
[7] = Klebsiella pneumoniae, Y50, 20 h
[8] = Proteus vulgaris, GN3027, 20 h, read-out: MIC
[9] = Pseudomonas aeruginosa, read-out: MIC
[10] = Pseudomonas aeruginosa, S68, read-out: MIC
[11] = Staphylococcus aureus, FDA209P, 20 h, read-out: MIC
[12] = Escherichia coli, 20 h, read-out: MIC
[13] = Klebsiella pneumoniae, 20 h, read-out: MIC
[14] = Pseudomonas aeruginosa, 20 h, read-out: MIC
[15] = Staphylococcus aureus, 20 h, read-out: MIC
[16] = Proteus vulgaris, 20 h, read-out: MIC

In the case of `CC(=O)Oc1ccc(-n2cc(C(=O)OCCN(C)C)c(=O)cc2-c2ccc(N(C)C)cc2)cc1` [drawing 38], the MIC (Aci. antitratus A-6) is reported as 0.39 µg/mL (≈ 0.841 µM), the MIC (E. coli NIHJ JC-2) is reported as 0.39 µg/mL (≈ 0.841 µM) and the MIC (E. coli TK-111) is reported as 0.2 µg/mL (≈ 0.431 µM). It also gave an MIC (Ent. cloacae IID977) of 1.56 µg/mL (≈ 3.37 µM), an MIC (Kl. pneumoniae Y-41; 10^6 cells per ml) of 3.13 µg/mL (≈ 6.75 µM) and an MIC (Kl. pneumoniae Y-50; 20 hours) of 0.78 µg/mL (≈ 1.68 µM). It also gave an MIC (Pro. mirabilis T-111; 10^6 cells per ml, 20 hours) of 6.25 µg/mL (≈ 13.5 µM), an MIC (Pro. morganii T-216; 10^6 cells per ml, 20 hours) of 3.13 µg/mL (≈ 6.75 µM) and an MIC (Pro. vulgaris GN3027) of 0.39 µg/mL (≈ 0.841 µM). For the same compound, the MIC (Ps. aeruginosa IFO3445) was 12.5 µg/mL (≈ 27 µM), the MIC (Ps. aeruginosa S-68) was 6.25 µg/mL (≈ 13.5 µM) and the MIC (St. aureus FDA209P) was 0.39 µg/mL (≈ 0.841 µM). For the same compound, the MIC (E. coli TK-3*) was 1.56 µg/mL (≈ 3.37 µM), the MIC (Kl. pneumoniae Y-4*) was 6.25 µg/mL (≈ 13.5 µM) and the MIC (Ps. aeruginosa GN3379*) was 12.5 µg/mL (≈ 27 µM). The MIC (St. aureus F-137*) was 0.39 µg/mL (≈ 0.841 µM), the MIC (E. coli GN5482**) was no more than 0.05 µg/mL and the MIC (Pro. vulgaris GN76**) was 1.56 µg/mL (≈ 3.37 µM). For the same compound, the MIC (Ps. aeruginosa GN918**; GN918, 20 h) was 3.13 µg/mL (≈ 6.75 µM).

Compound `CC(=O)Oc1ccc(-n2cc(C(=O)OCCN(C)C)c(=O)cc2-c2ccc(N(C)C)cc2)cc1` [drawing 67] has an MIC (Aci. antitratus A-6) of 0.2 µg/mL (≈ 0.431 µM), an MIC (E. coli NIHJ JC-2) of 0.2 µg/mL (≈ 0.431 µM) and an MIC (E. coli TK-111) of 0.1 µg/mL (≈ 0.216 µM). The MIC (Ent. cloacae IID977) was 0.78 µg/mL (≈ 1.68 µM), the MIC (Kl. pneumoniae Y-41; 10^6 cells per ml) was 3.13 µg/mL (≈ 6.75 µM) and the MIC (Kl. pneumoniae Y-50; 20 hours) was 0.39 µg/mL (≈ 0.841 µM). The MIC (Pro. mirabilis T-111; 10^6 cells per ml, 20 hours) was 3.13 µg/mL (≈ 6.75 µM), the MIC (Pro. morganii T-216; [2]) was 1.56 µg/mL (≈ 3.37 µM) and the MIC (Pro. vulgaris GN3027) was 0.2 µg/mL (≈ 0.431 µM). It also gave an MIC (Ps. aeruginosa IFO3445) of 12.5 µg/mL (≈ 27 µM), an MIC (Ps. aeruginosa S-68) of 6.25 µg/mL (≈ 13.5 µM) and an MIC (St. aureus FDA209P) of 0.2 µg/mL (≈ 0.431 µM). The MIC (E. coli TK-3*) was 0.78 µg/mL (≈ 1.68 µM), the MIC (Kl. pneumoniae Y-4*) was 3.13 µg/mL (≈ 6.75 µM) and the MIC (Ps. aeruginosa GN3379*; Pseudomonas aeruginosa, GN3379, 20 h) was 6.25 µg/mL (≈ 13.5 µM). The MIC (St. aureus F-137*) was 0.2 µg/mL (≈ 0.431 µM), the MIC (E. coli GN5482**) was no more than 0.05 µg/mL and the MIC (Pro. vulgaris GN76**) was 1.56 µg/mL (≈ 3.37 µM). It also gave an MIC (Ps. aeruginosa GN918**; 20 h, read-out: MIC) of 1.56 µg/mL (≈ 3.37 µM).

With `O=C(O)c1cn(-c2ccc(F)cc2)c(C=Cc2cccnc2)cc1=O` [drawing 205] the MIC (Aci. antitratus A-6; 20 h, read-out: MIC) was 3.13 µg/mL (≈ 9.31 µM), the MIC (E. coli NIHJ JC-2; [3]) was 1.56 µg/mL (≈ 4.64 µM) and the MIC (E. coli TK-111; [4]) was 0.78 µg/mL (≈ 2.32 µM). The MIC (Ent. cloacae IID977; [5]) was 3.13 µg/mL (≈ 9.31 µM), the MIC (Kl. pneumoniae Y-41; [6]) was 6.25 µg/mL (≈ 18.6 µM) and the MIC (Kl. pneumoniae Y-50; [7]) was 0.78 µg/mL (≈ 2.32 µM). The MIC (Pro. mirabilis T-111; Proteus mirabilis, T111, 10^6 cells per ml, 20 hours, read-out: MIC) was 12.5 µg/mL (≈ 37.2 µM), the MIC (Pro. morganii T-216; Morganella morganii, T216, 20 h, 10^6 cells per ml) was 6.25 µg/mL (≈ 18.6 µM) and the MIC (Pro. vulgaris GN3027; [8]) was 0.39 µg/mL (≈ 1.16 µM). The MIC (Ps. aeruginosa IFO3445; [9]) was 25 µg/mL (≈ 74.3 µM), the MIC (Ps. aeruginosa S-68; [10]) was 12.5 µg/mL (≈ 37.2 µM) and the MIC (St. aureus FDA209P; [11]) was 3.13 µg/mL (≈ 9.31 µM). For the same compound, the MIC (E. coli TK-3*; [12]) was 3.13 µg/mL (≈ 9.31 µM), the MIC (Kl. pneumoniae Y-4*; [13]) was 6.25 µg/mL (≈ 18.6 µM) and the MIC (Ps. aeruginosa GN3379*; [14]) was 25 µg/mL (≈ 74.3 µM). For the same compound, the MIC (St. aureus F-137*; [15]) was 3.13 µg/mL (≈ 9.31 µM), the MIC (E. coli GN5482**; [12]) was 0.2 µg/mL (≈ 0.595 µM) and the MIC (Pro. vulgaris GN76**; [16]) was 1.56 µg/mL (≈ 4.64 µM). The MIC (Ps. aeruginosa GN918**; 20 h, read-out: MIC) was 12.5 µg/mL (≈ 37.2 µM).

In the case of `CN(C)c1ccc(-c2cc(=O)c(C(=O)O)cn2-c2ccc(O)cc2)cc1` [drawing 206], the MIC (Aci. antitratus A-6; 20 h, read-out: MIC) is reported as 0.39 µg/mL (≈ 1.11 µM), the MIC (E. coli NIHJ JC-2; [3]) is reported as 0.2 µg/mL (≈ 0.571 µM) and the MIC (E. coli TK-111; [4]) is reported as 0.05 µg/mL (≈ 0.143 µM). It also gave an MIC (Ent. cloacae IID977; [5]) of 0.39 µg/mL (≈ 1.11 µM), an MIC (Kl. pneumoniae Y-41; [6]) of 0.78 µg/mL (≈ 2.23 µM) and an MIC (Kl. pneumoniae Y-50; [7]) of 0.2 µg/mL (≈ 0.571 µM). It also gave an MIC (Pro. mirabilis T-111; Proteus mirabilis, T111, 20 h, 10^6 cells per ml) of 1.56 µg/mL (≈ 4.45 µM), an MIC (Pro. morganii T-216; [2]) of 0.78 µg/mL (≈ 2.23 µM) and an MIC (Pro. vulgaris GN3027; [8]) of 0.1 µg/mL (≈ 0.285 µM). The MIC (Ps. aeruginosa IFO3445; [9]) was 3.13 µg/mL (≈ 8.93 µM), the MIC (Ps. aeruginosa S-68; [10]) was 3.13 µg/mL (≈ 8.93 µM) and the MIC (St. aureus FDA209P; [11]) was 0.2 µg/mL (≈ 0.571 µM). It also gave an MIC (E. coli TK-3*; [12]) of 0.39 µg/mL (≈ 1.11 µM), an MIC (Kl. pneumoniae Y-4*; [13]) of 1.56 µg/mL (≈ 4.45 µM) and an MIC (Ps. aeruginosa GN3379*; [14]) of 3.13 µg/mL (≈ 8.93 µM). The MIC (St. aureus F-137*; [15]) was 0.1 µg/mL (≈ 0.285 µM), the MIC (E. coli GN5482**; [12]) was 0.05 µg/mL (≈ 0.143 µM) and the MIC (Pro. vulgaris GN76**; [16]) was 0.39 µg/mL (≈ 1.11 µM). For the same compound, the MIC (Ps. aeruginosa GN918**; 20 h, read-out: MIC) was 1.5 µg/mL (≈ 4.28 µM).

Compound `O=C(O)c1cn(-c2ccc(F)cc2)c(C=Cc2cccnc2)cc1=O` [drawing 215] has an LD50 [1] greater than 200 mg/kg.

Work on `CN(C)c1ccc(-c2cc(=O)c(C(=O)O)cn2-c2ccc(O)cc2)cc1` [drawing 217] yielded an LD50 [1] greater than 200 mg/kg.

Compound `O=C(O)c1cn(-c2ccc(F)cc2)c(-c2ccc(NCCO)cc2)cc1=O` [drawing 219] has an LD50 [1] greater than 200 mg/kg.

`Cc1cc(O)ccc1-n1cc(C(=O)O)c(=O)cc1C1CCCCC1` [drawing 221] showed an LD50 [1] greater than 200 mg/kg.
